Data from patent US8883834B2, “Methods and compositions for locally increasing body fat” (Topokine Therapeutics, Inc., priority 2012, dated 2014).
Where two headings read alike, the source gives them in different places.

Columns and labels:
[1] = tested on: C57BL/6J; test: Randomized controlled trial in mice, compounds in Lipoderm applied daily to right flank (Example 1); format: in vivo; conditions: for Local increase in subcutaneous fat / asymmetry between flanks: following 24 days of therapy, right flank treated, left flank untreated
Description: The arms were as follows: vehicle (Lipoderm®), a thiazolidinedione (pioglitazone), harmine, an orexigenic compound (megestrol acetate), and efavirenz. Each compound was combined in the percutaneous Lipoderm® formulation at an equimolar concentration (5 mM). The Lipoderm® vehicle is adapted to deliver the respective compound percutaneously, i.e., across the skin and into subcutaneous fat. The formulations were applied daily to the right flank of each animal, whereas the left flank was used as an untreated control.
A randomized controlled trial was conducted on C57BL/6J. Male mice approximately six weeks old were prospectively randomized into groups and assigned to the following treatment conditions (n=5 animals per group):
Animals were shaved and depilated over the flanks at the start of the study.
Animals were kept in identical conditions and fed ab libitum with a standardized high-fat diet (70% kcal fat). Animals were weighed three times weekly. Following 24 consecutive days of treatment, mice were sacrificed and samples of skin and adjacent fat from the treated flanks are taken for histologic examination.

[2] = Plasma pharmacokinetics after percutaneous administration in minipigs (Example 4); conditions: percutaneous versus oral
Description: (§1) A prospective controlled trial was performed in 4 Gottingen minipigs (2 males, 2 females). Hair on the back was clipped. […] An equivalent Vehicle Treatment Area was marked on the left side of the animal, such that the two treatment areas were anatomically equivalent. […] After 42 days of treatment, plasma pharmacokinetics (PK) was assessed on all animals by Liquid Chromatography/Tandem Mass Spectrometry. Necropsy was done and samples of skin, subcutaneous fat, and muscle were collected en bloc from each treatment area in a controlled fashion. […] Table 5 presents the thicknesses of subcutaneous fat on each of six treated and control (vehicle) locations, by animal. […] Table 6 compares plasma PK following percutaneous administration (present study) with plasma PK following oral administration in humans.

[3] = tested on: Gottingen minipigs; conditions: for Increase over Placebo in subcutaneous fat thickness, MEAN: mean of 24 sites, 42 days
Description: as §1

[4] = tested on: patient; test: Clinical application for augmentation of the buttocks (Example 9); format: in vivo, human; conditions: 10 mg/ml in Lipoderm daily, after 6 months; contemplated
Description: The following description exemplifies a clinical application of percutaneous administration of an orexigenic pregnane derivative for augmentation of the buttocks. A female or male patient wishes to undergo a buttocks augmentation procedure but is concerned about the risks of surgery. The physician prescribes a daily application of megestrol acetate (for example, 10 mg/ml in Lipoderm®) to the buttocks.

COc1ccc2c(c1)[nH]c1c(C)nccc12 [Harmine]
Local increase in subcutaneous fat / asymmetry between flanks [1]: did not exhibit any increase in fat or asymmetry between the two flanks

CN(CCOc1ccc(CC2SC(=O)NC2=O)cc1)c1ccccn1 (centres unmarked) [Rosiglitazone]
Peak plasma concentration, lower than for oral (systemic) therapy [2]: about 3400 fold | Plasma exposure, lower than for oral (systemic) therapy [2]: ~1300 fold | Increase over Placebo in subcutaneous fat thickness, MEAN [3]: 48% | Increase over Placebo in subcutaneous fat thickness, MEAN ([3]; listed as rosiglitazone): 48% | Tolerability ([3]; minipig, in vivo): well tolerated, with no evidence of skin irritation or other clinical observations

O=C1Nc2ccc(Cl)cc2[C@@](C#CC2CC2)(C(F)(F)F)O1 [Efavirenz]
Local increase in subcutaneous fat / asymmetry between flanks [1]: did not exhibit any increase in fat or asymmetry between the two flanks

CC(=O)O[C@]1(C(C)=O)CC[C@H]2[C@@H]3C=C(C)C4=CC(=O)CC[C@]4(C)[C@H]3CC[C@@]21C [Megestrol acetate]
Relative skin fold thickness of left and right flanks ([1]; examined on Day 24): asymmetric, with thicker skin folds on the treated flanks compared to the untreated flanks | Local increase in subcutaneous fat / asymmetry between flanks [1]: exhibited local increases in subcutaneous fat | Thickness of skin fold, right (treated) flank ([1]; representative mouse, 24 days of treatment, left (untreated) flank about 2 mm): about 4 mm | Buttocks size, clinical appearance [4]: the buttocks appear clinically larger
